Results on two molecules are retold here after publication PMC6701825, “Antiproliferative and Antimigratory Effects of a Novel YAP–TEAD Interaction Inhibitor Identified Using in Silico Molecular Docking” (Journal of Medicinal Chemistry, 2019).

One assay concerns CTGF promoter. Description: CTGF-luciferase reporter in HeLa cells. As to conditions: 6 h, indicated concentrations. The assay is classed as cell-based, human. An excerpt:
(§1) Activation of TEAD transcription factors in response to YAP binding induces the expression of many genes that encode proteins known to be involved in promoting cell proliferation and migration (see Supplement Figure 14). The best characterized TEAD target genes associated with the promotion of cell proliferation and migration are CCN1 and CTGF.[39],[59],[60] […] We therefore tested whether CPD3 inhibited the promoter activity of known TEAD target genes, CCN1 and CTGF, in the HeLa transformed cell line and primary rat VSMCs (RaVSMCs). Cells were transfected with plasmids expressing bioluminescent firefly luciferase reporter genes under the control of either the CCN1 or CTGF promoter regions. […] As both CCN1 and CTGF are classical TEAD target genes, this is consistent with the inhibition of TEAD activity by CPD3.
(§2) TNT1-minP reporter containing the Troponin-T minimal promoter was generated by digesting 8xGTIIC-luciferase plasmid (Addgene #34615) with Kpn1 and BglII to remove the TEAD elements, followed by blunt end re-ligation. A 2.177 kb fragment of the human CCN1 promoter containing two proximal TEAD elements (Hg19;chr1:86044316–chr1:86046493) was described previously[39] and cloned into pGL4-luciferase (Promega). […]
Background: Reporter assays use an easily measured gene product as a stand-in for the process of interest.

The subject of assay [1] is housekeeping genes PGK1, TBP, GAPDH, 36B4. The experiment in a line: qRT-PCR of TEAD-independent housekeeping gene mRNA in RaVSMCs. The assay is classed as cell-based, rat. On the procedure:
Figure 9 Compound 3.1 inhibits TEAD target gene expression, cell proliferation, and cell migration in RaVSMCs. RaVSMCs stably transduced with TEAD-NLUC (A) or transiently transfected with CCN1-LUC or CTGF-LUC were treated with the indicated concentrations of compound 3.1 for 6 hr. Cell conditioned media (A) or cell lysates (B−C) were assayed for nanoluciferase or fire-fly luciferase activity, respectively. VSMC were treated with 60 μM compound 3.1 for 6 h (n = 3). Total RNA was analyzed for mRNA levels of TEAD-target genes (D) or constitutive housekeeping genes (E) by qRT-PCR. VSMC were treated with indicated concentrations of compound 3.1 for 16 hr (n = 4). Total cell lysates were analyzed for CCN1 protein expression by Western blotting (F). […] RaVSMCs (I) or HuVSMC (J) were treated with indicated concentrations of compound 3.1 and cell migration quantified using IncuCyte real time migration assay (n = 4).
Quantitative reverse transcription (RT)-PCR: quantification of mRNA was performed by RT-qPCR, as described previously.[39] Total RNA was extracted using Ambion PureLink kits (Thermo Fisher) and reverse-transcribed using QuantiTect RT kit (Qiagen) and random primers. Quantitative PCR was performed using Roche SYBR Green using a Qiagen Roto-GeneRotor-Gene Q PCR machine (20 seconds@95 °C; 20 seconds @62 °C; 20 seconds@72 °C). […]
In general terms: In qPCR the cycle at which signal appears reflects the starting amount.

Assay [2] concerns CCN1 promoter. The experiment in a line: CCN1-luciferase reporter in HeLa cells. As to conditions: 6 h, indicated concentrations. The class given is cell-based, human.
Text: as §1, §2

The test system of assay [3] is TEAD target genes (CCN1, CTGF, PAI1, THBS, MAYDM, MYOC). The experiment in a line: qRT-PCR of TEAD target gene mRNA in RaVSMCs. The assay is classed as cell-based, rat. The procedure:
Figure 9 Compound 3.1 inhibits TEAD target gene expression, cell proliferation, and cell migration in RaVSMCs. RaVSMCs stably transduced with TEAD-NLUC (A) or transiently transfected with CCN1-LUC or CTGF-LUC were treated with the indicated concentrations of compound 3.1 for 6 hr. Cell conditioned media (A) or cell lysates (B−C) were assayed for nanoluciferase or fire-fly luciferase activity, respectively. VSMC were treated with 60 μM compound 3.1 for 6 h (n = 3). Total RNA was analyzed for mRNA levels of TEAD-target genes (D) or constitutive housekeeping genes (E) by qRT-PCR. VSMC were treated with indicated concentrations of compound 3.1 for 16 hr (n = 4). Total cell lysates were analyzed for CCN1 protein expression by Western blotting (F). RaVSMCs (G) or HuVSMC (H) were treated with indicated concentrations of compound 3.1 for 18 h followed by labeling in 10 μM EdU for a further 6 h (n = 4). RaVSMCs (I) or HuVSMC (J) were treated with indicated concentrations of compound 3.1 and cell migration quantified using IncuCyte real time migration assay (n = 4).
Quantitative reverse transcription (RT)-PCR: quantification of mRNA was performed by RT-qPCR, as described previously.[39] Total RNA was extracted using Ambion PureLink kits (Thermo Fisher) and reverse-transcribed using QuantiTect RT kit (Qiagen) and random primers. Quantitative PCR was performed using Roche SYBR Green using a Qiagen Roto-GeneRotor-Gene Q PCR machine (20 seconds@95 °C; 20 seconds @62 °C; 20 seconds@72 °C). Data were normalized to nonstimulated controls. Primer sequences are described in Supplement Table 2.
Supplement Figure 11: Dose repose analysis of CPD3.1 on CCN1, CTGF and THBS
RaVSMC were treated with the indicated doses of CPD3.1 and total RNA analysed for
levels of steady state mRNA of CCN1, CTGF and THBS mRNA using qRT-PCR (n=4).
(1 picture or pasted object on this page, not shown here)

Assay [4] has as its system HeLa cells. The experiment in a line: EdU proliferation assay in HeLa cells. The assay is classed as cell-based, human. As to conditions: for cell proliferation (EdU incorporation): 18 h then 6 h 10 μM EdU. On the procedure:
(§3) Cell proliferation was measured using the Click-iT EdU 488 assay (Sigma-Aldrich). Briefly, the cells were treated with indicated concentrations of compounds for 24 h with the last 4 h being in the presence of 10 μM EdU. The cells were fixed in 4% formaldehyde and stained for EdU incorporation, following the kit’s standard protocol. The cells were counterstained with Hoechst 33342 nucleic acid for 20 min. Fluorescent images of at least three fields of view per well were counted using ImageJ software. Real-time analysis of cell migration was performed using an IncuCyte ZOOM live cell imaging system (Essen BioScience) according to the manufacturer’s instructions. Briefly, the cells were seeded (1.2 × 10^4 cells/well for HeLa cells, 1.5 × 10^4 cells/well for RaVSMCs, and 1 × 10^4 cells/well) into ImageLock 96-well plates. After 36 h, the cells were pretreated overnight with indicated concentrations of compounds. The wells were scratched using a WoundMaker tool, and the media were replaced containing test compounds. Phase contrast images of cell migration into the wounded area were acquired hourly for 24 h. Relative wound confluence was calculated using the Cell Migration Image analysis module of the IncuCyte ZOOM software.

Assay [5] deals with HeLa cells. The experiment in a line: Real-time IncuCyte scratch wound migration assay in HeLa cells. The class given is cell-based, human. On the procedure: as §3
The subject of a further assay is RaVSMCs. The experiment in a line: Real-time IncuCyte scratch wound migration assay in RaVSMCs. The assay is classed as cell-based, rat. On the procedure: as §3
Supplement Figure 5: Effect of low micromolar doses of CPD3 on rat VSMC migration.
VSMC were incubated with the indicated doses of CPD3 for 18 hours before quantification […]

Assay [6] concerns CCN1 promoter. The experiment in a line: CCN1-luciferase reporter in RaVSMCs. The assay is classed as cell-based, rat.
Text: as §1
Figure 9 Compound 3.1 inhibits TEAD target gene expression, cell proliferation, and cell migration in RaVSMCs. […] Total RNA was analyzed for mRNA levels of TEAD-target genes (D) or constitutive housekeeping genes (E) by qRT-PCR. […] Total cell lysates were analyzed for CCN1 protein expression by Western blotting (F). […] RaVSMCs (I) or HuVSMC (J) were treated with indicated concentrations of compound 3.1 and cell migration quantified using IncuCyte real time migration assay (n = 4). […]

Where [7] appears, read: RaVSMC dose-response, Supplement Figure 11.

The IC50 is the concentration that gives 50% inhibition. As for `Cc1ccc2c(c1)c1c3n2CCNC3CCC1` (centres unmarked) [CPD3.1], the “CTGF-luciferase reporter gene activity” value in the assay on CTGF promoter is listed as “dose-dependent inhibition”. The “steady-state mRNA levels of housekeeping genes PGK1, TBP, GAPDH, 36B4” value in assay [1] (VSMC, 60 μM, 6 h) is given as “unaffected”. Also, the “CCN1-luciferase reporter gene activity” value in the assay with CCN1 promoter [2] was “dose-dependent inhibition”. For the same molecule, in assay [3] (setting [7]), the “concentration giving inhibition of CCN1 mRNA” value came out at 20 µM, the “concentration giving inhibition of CTGF mRNA” value was 40 µM and the “concentration giving inhibition of THBS mRNA” value came out at 10 µM. Moreover, the “steady-state mRNA levels of TEAD target genes (CCN1, CTGF, PAI1, THBS, MAYDM, MYOC)” value in assay [3] (VSMC, 60 μM, 6 h) is “significantly inhibited”. In addition, in the assay on HeLa cells [4], the “doses at which EdU incorporation was significantly inhibited” value is listed as “above 40 μM” and the “cell proliferation (EdU incorporation)” value is recorded as “dose-dependently inhibited HeLa cell proliferation”. Moreover, the “cell migration (scratch wound)” value with HeLa cells [5] was “significantly inhibited HeLa cell migration at 40, 60, and 80 μM”. In addition, the “cell migration (scratch wound)” value in the assay with RaVSMCs is “inhibited in a dose-dependent manner by 2, 10, and 20 μM CPD3.1”. In the assay with CCN1 promoter [6] (Rattus norvegicus, 6 hr, read-out: IC50, CCN1-LUC (as printed in Figure 9B)), the IC50 was 48 µM.
For `Cc1ccc2c(c1)c1c3n2CCN(CC(O)CN2CCN(C(=O)c4ccco4)CC2)C3CCC1` (centres unmarked) [CPD3], in the assay with CTGF promoter, the “CTGF-luciferase reporter gene activity” value was “strong and significant dose-dependent inhibition”. In assay [1] (RaVSMCs, Supplement Figure 4), the “steady-state mRNA level of housekeeping gene 36B4” value is listed as “but not the TEAD-independent housekeeping gene 36B4”. Moreover, the “CCN1-luciferase reporter gene activity” value with CCN1 promoter [2] is “strong and significant dose-dependent inhibition”; in the assay on CCN1 promoter [6] (6 h, indicated concentrations), “strong and significant dose-dependent inhibition”. For the same molecule, in assay [3] (RaVSMCs, Supplement Figure 4), the “steady-state mRNA levels of endogenous CCN1 and CTGF genes” value is “significantly inhibited”. In the assay with HeLa cells [4], the “cell proliferation (EdU incorporation)” value is reported as “dose-dependently inhibited cell proliferation”. Moreover, the “cell migration (scratch wound)” value in the assay on HeLa cells [5] and with RaVSMCs was “dose-dependently inhibited” in each case.
